Results taken from US11154551B2, “HDAC1,2 inhibitors and methods of using the same” (UNIVERSITY OF UTAH RESEARCH FOUNDATION, priority 2014, dated 2021).

Test system: Karpas-422 cells
Test: 53BP1 and γH2AX foci formation after doxorubicin
Format: cell-based, human
Settings: 24 h pretreatment
Description: After 4 h or 8 h of doxorubicin treatment, cells were fixed and immunofluorescence staining was performed with anti-γH2AX and anti-53BP1 antibodies. Cells shown were representative images based on the quantitation. Merge was the overlay of γH2AX and 53BP1 pictures. (B) and (C): Graphs depicted the percentage of cells with 53BP1 foci present at γH2AX containing break sites and the percentages of cells with γH2AX foci.
Immunofluorescence. Cells were fixed in either 10% formalin or methanol-acetone (1:1) for 10 min at −20*C. The cells were then permeabilized with 0.5% Triton-X-100 in PBS for 5 min at room temperature (RT), blocked in 10% normal goat serum (Sigma) for 30 min and stained with primary antibody for 1 h at RT. Cells were incubated with secondary antibody (anti-mouse or anti-rabbit IgG, Alexa Fluor 488/546) at a 1:600 dilution for 45 min at RT, and counterstained with Hoechst 33342 (Sigma) at 1:1000 dilution to visualize the nuclei. Images were captured using Zeiss Axioskop mot plus microscope with a 40× lens and analyzed using the AxioVision software.
To test this possibility, we treated DLBCL cells with DMSO or ACY957 for 24 h prior to a low dose of doxorubicin (50 nM) treatment. We examined γH2AX and 53BP1 foci formation at 4 h or 8 h post-doxorubicin treatment using immunofluorescence.
The percentage of cells containing 0, 1-5, 6-10 and greater than 10 γH2AX and 53BP1 foci were determined in at least 100 cells from three independent experiments.

SMILES: Nc1ccc(-c2cccs2)cc1NC(=O)c1ccc2nc(N3CCNCC3)ccc2c1 [ACY-957, N-(2-amino-5-(thiophen-2-yl)phenyl)-2-(piperazin-1-yl)quinoline-6-carboxamide]
- 53BP1 foci co-localizing with γH2AX foci (4 h post-doxorubicin (50 nM)): decrease in the number of 53BP1 foci
- percentage of cells with 53BP1 foci (8 h doxorubicin): increased to the level that was observed in the control DMSO-treated cells
- percentage of cells with γH2AX foci (8 h doxorubicin): even higher percentage of cells with 6-10 and greater than 10 γH2AX foci
